{"source": "patent US4321254A", "about": "“Antiallergic imidodisulfamides” (SmithKline Corporation, priority 1980, dated 1982)", "system": "slow reacting substance of anaphylaxis (SRS-A)", "assay": "Inhibition of SRS-A induced contraction of guinea pig ileum", "details": "compound concentration 5×10^-6 M, partially purified SRS-A from guinea pig lung, agonist 40 μg/ml, 15 min, 5 µM", "procedure": "The SRS-A antagonist activity of the compounds of this invention is measured by the ability of the active medicament to inhibit SRS-A induced contraction of guinea pig ileum. In this test system, sections of ileum are resected from guinea pigs and placed in 5 ml. tissue baths containing a modified Tyrode's solution. One end of the tissue is fixed to a glass tissue holder, the other is connected to a force-displacement transducer and the tissue is placed under a tension of 500 mg. Isometric tissue contractions are recorded on a six channel polygraph. Baths are constantly aerated with 95% O2 -5% CO2. After a 20 minute stabilization period a concentration of the appropriate agonist which provides a contraction height of 60-80% of the maximum obtainable to that agonist (as determined) from full sequential concentration--response curves in separate experiments) is added to the tissue bath and the response recorded. The procedure is repeated until reproducible responses are obtained. […] Percent inhibition produced by the test compound is calculated by substracting the mean percentage change in control tissue from the mean percentage change in tissues exposed to the test compound. Additional compounds are then evaluated as long as the tissue remains reproducibly responsive to the agonist. […]"}
{"smiles": "O=S(=O)(Nc1ccc2c(c1)CN(S(=O)(=O)NS(=O)(=O)N1CCc3ccc(NS(=O)(=O)c4ccc(Cl)cc4)cc3C1)CC2)c1ccc(Cl)cc1", "note": "[Compound 1, N,N'-bis[7-(4-chlorophenylsulfonamide)-1,2,3,4-tetrahydroisoquinolyl]disulfonylimide]", "values": [{"measurement": "percent antagonism of SRS-A induced contraction", "result": 59, "unit": "%"}]}
